The text below walks through data of US11357819B2, “Cytocidal agent” (FUJITA ACADEMY, priority 2017, dated 2022).

“Also recorded” adds a separate entry of the source. Read-outs that look alike come from different tables or passages of the source. Where a SMILES comes first, the peptide text is derived from it. [ ]: non-standard residue; d: D form.

The test system of data set [1] is A431-CNGB3-myc cells. Briefly: Cytocidal activity by ATP amount (CellTiter-Glo luminescence) in peptide-treated A431-CNGB3-myc cells. The class given is cell-based, human. Conditions: for cytocidal activity (relative ATP amount %): Example 6, A431-CNGB3-myc cells, 2.34 to 300.0 μM, FIG. 10. On the procedure: A transformed cell (A431-CNGB3-myc cell) obtained by introducing a gene encoding human CNGB3, in which an myc tag was fused in a C-terminal, into an A431 cell (human epithelial-like cell cancer-derived cell strain) and forcibly expressing thereof was prepared as an endometriosis model cell.
Culturing of the A431-CNGB3-myc cell was performed at 37° C. in a 5 volume % carbon dioxide environment using a medium in which 10% of inactivated FBS (bovine fetal serum, manufactured by Corning Corporation) and 1% of penicillin-streptomycin (manufactured by Invitrogen Corporation) were contained in a DMEM High Glucose medium (manufactured by GIBCO Corporation), as a culture medium. Passage was performed every two or three days.
The cytocidal activity of each peptide was evaluated by measuring an ATP amount in A431-CNGB3-myc cells treated with each peptide using CellTiter-Glo (registered trademark) assay kit (manufactured by Promega).
Specifically, first, A431-CNGB3-myc cells after 2 passages were disseminated into a 96-well plate (manufactured by Corning/Costar, Lot No. 00515003) so as to be 1×10^4 cells/well by preparing the concentration of the cells. After culturing for 2 days after the dissemination, each peptide was added to each well such that a final concentration was […], 75, or 150 μM, respectively, and cultured for 24 hours. Thereafter, the culture supernatant was removed from each well, and CellTiter-Glo buffer was added to the remaining cells, and after homogenization, the supernatant was recovered by centrifugation and used as a lysate. A double quantity of PBS and a 2×CellTiterGlo Reagent of the equivalent amount of the lysate were added to the lysate and stirred to obtain a reaction solution, and the reaction solution was stood at room temperature for 10 minutes. The luminescence intensity (Luminescence) (RLU: RELATIVE LIGHT UNITS) of the reaction solution after standing at room temperature was measured using a Synergy H1 hybrid multi-mode microplate reader (manufactured by BioTek Corporation). The luminescence intensity of the reaction solution is an indicator of the amount of ATP. It is shown that the smaller the luminescence intensity of the reaction solution is, the amount of ATP is small, and the cytocidal activity of the administered peptide is strong. All trials were measured in triplicate and the average was evaluated as the cytocidal activity at the concentration of each peptide.
The final concentration of each peptide added to the A431-CNGB3-myc cells disseminated into the 96-well plate was set to be 2.34, 4.69, 9.38, 18.8, 37.5, 75, or 150 μM, and the cytocidal activity of each peptide was evaluated in the same manner as that of Reference Example 1, except that the culture time after addition of the peptide was set to 20 hours. In the evaluation of the cytocidal activity against the A431-CNGB3-myc cells of each peptide, the measurement result of the fluorescence intensity (RLU) of each reaction solution is shown in FIG. 2. In the figure, “1” to “16” show the result of the reaction solution to which peptides 1 to 16 of Table 2 were added, respectively.
The cytocidal activity of each peptide was evaluated in the same manner as that of Example 1, except that the final concentration of each peptide added to each cell disseminated into the 96-well plate was set to be 0 (peptide non-added), 2.34, 4.69, 9.38, 18.8, 37.5, 75.0, 150.0, or 300.0 μM. A relative fluorescence intensity (%) of each reaction solution in a case Where the fluorescence intensity (RLU) of the reaction solution to which no peptide was added was set to 100% was calculated as a relative ATP amount (%). […]

The conditions of data set [2]: in vivo. On the procedure:
A weight of each mouse was measured before being died of bleeding.
As a result, in the control group into which a peptide was not administered (n=8), the number of dead individuals after 24 days from transplanting the A431-CNGB3-myc cells into the peritoneal cavity was 1, and the alive rate was […]. With respect to this, in a group into which the IF7 (RR)−(K+H) peptide was administered such that the IF7 (RR)−(K+H) peptide was 10 μg/body/day or 50 μg/body (n=6), the alive rate was 100%. In addition, at the time of the end of the test, the spread of cancer cells (A431-CNGB3-myc cells) in the peritoneal cavity of all mice was examined.

In data set [3] the test system is Ishikawa, SNG-II, Hec-1A and RL95-2 cells (cell strains derived from a uterine cancer cell). In words: Cytocidal activity by relative ATP amount (CellTiter-Glo) in cell strains derived from uterine cancer cells. Format: cell-based, human. To be noted: Example 6, 2.34 to 300.0 μM, 20 hours, FIGS. 11 to 14. On the procedure:
As the cancer-derived cell strain, an Ishikawa cell derived from human endometrium gland cancer, an SNG-II cell derived from human endometrium cancer, an Hec-1A cell derived from human uterine body cancer, and a RL95-2 cell derived from human endometrium cancer were used. The cells were cultured in the same manner as the A431-CNG133-myc cells.
The cytocidal activity of each peptide was evaluated in the same manner as that of Example 1, except that the final concentration of each peptide added to each cell disseminated into the 96-well plate was set to be 0 (peptide non-added), 2.34, 4.69, 9.38, 18.8, 37.5, 75.0, 150.0, or 300.0 μM. A relative fluorescence intensity (%) of each reaction solution in a case Where the fluorescence intensity (RLU) of the reaction solution to which no peptide was added was set to 100% was calculated as a relative ATP amount (%). In the figure, the “14D−Z13+5D−Z13” represents a relative ATP amount of the reaction solution to which both of a peptide A2-1 and a peptide A2-2 were added, the “14D−Z13” represents a relative ATP amount of the reaction solution to which only the peptide A2-1 was added, the “5D−Z13” represents a relative ATP amount of the reaction solution to Which only the peptide A2-2 was added, and the “14D−5D−Z13” represents a relative ATP amount (%) of the reaction solution to which only the peptide A2 was added, respectively.
(In general: Cellular ATP, detected with luciferase, serves as a proxy for viable cell number.)

Setting [4] is: Example 1, peptide 2.34 to 150 μM, 20 hours, FIG. 2.
Setting [5] is: Reference Example 1, peptide 35.5, 75 or 150 μM, 24 hours, FIG. 1.

As to “HLAHLAH-HLAHLAH-KLAKLAK-VRRADNRPG (HLAHLAHHLAHLAHKLAKLAKVRRADNRPG; HLAH(14)-KLAK(13)-Z13 peptide) [Peptide 16]”, the “cytocidal activity, comparison between peptides” value in data set [1] (setting [4]) is listed as “stronger cytocidal activity than the longest peptide 9”. Consider “KLAKLAK-KLAKLAK-HLAHLAH-HLAHLAH-VRRADNRPG (KLAKLAKKLAKLAKHLAHLAHHLAHLAHVRRADNRPG; D-residues) [WT]”, for which, in data set [1] (setting [5]), the “cytocidal activity (luminescence intensity RLU, indicator of ATP amount)” value is “concentration-dependent cytocidal activity” and the “cytocidal activity, comparison between peptides” value is “stronger cytocidal activity than the peptide D5E”.

Take “KLAKLAK-KLAKLAK-HLAHLAH-HLAHLAH-VRRAENRPG (KLAKLAKKLAKLAKHLAHLAHHLAHLAHVRRAENRPG; KLAK(14)-HLAH(14)-D5E peptide) [Peptide D5E]”: the “cytocidal activity (luminescence intensity RLU, indicator of ATP amount)” value in data set [1] (setting [5]) is “concentration-dependent cytocidal activity”. For “KLAKLAK-KLAKLAK-HLAHLAH-VRRADNRPG (KLAKLAKKLAKLAKHLAHLAHVRRADNRPG; KLAK(14)-HLAH(7)-Z13 peptide) [Peptide 8]”, the “cytocidal activity, comparison between peptides” value in data set [1] (setting [4]) is given as “stronger cytocidal activity than the longest peptide 1; also recorded: strongest cytocidal activity”. On to `CC(C)C[C@@H](NC(=O)[C@H](N)CCCCN)C(=O)N[C@H](C)C(=O)N[C@H](CCCCN)C(=O)N[C@H](CC(C)C)C(=O)N[C@H](C)C(=O)N[C@H](CCCCN)C(=O)N[C@H](CCCCN)C(=O)N[C@H](CC(C)C)C(=O)N[C@H](C)C(=O)N[C@H](CCCCN)C(=O)N[C@H](CC(C)C)C(=O)N[C@H](C)C(=O)N[C@H](CCCCN)C(=O)N[C@H](Cc1c[nH]cn1)C(=O)N[C@H](CC(C)C)C(=O)N[C@H](C)C(=O)N[C@H](Cc1c[nH]cn1)C(=O)N[C@H](CC(C)C)C(=O)N[C@H](C(=O)N[C@@H](CCCNC(=N)N)C(=O)N[C@@H](CCCNC(=N)N)C(=O)N[C@@H](C)C(=O)N[C@@H](CC(=O)O)C(=O)N[C@@H](CC(N)=O)C(=O)N[C@@H](CCCNC(=N)N)C(=O)N1CCC[C@H]1C(=O)NCC(=O)O)C(C)C` [Peptide A2, KLAKLAK-KLAKLAK-HLAHL-VRRADNRPG] (H-[dK][dL][dA][dK][dL][dA][dK][dK][dL][dA][dK][dL][dA][dK][dH][dL][dA][dH][dL]VRRADNRPG-OH), for which the “weight of each mouse” value in data set [2] (ip) is “no particular change”.

For “KLAKLAK-KLAKLAK-VRRADNRPG (KLAKLAKKLAKLAKVRRADNRPG; KLAK(14D)-Z13 peptide) [Peptide A2-1]”, the “cytocidal activity (relative ATP amount %)” value in data set [1] (20 hours) and in data set [3] was “hardly observed or significantly weak” throughout. As to “HLAHL-VRRADNRPG (HLAHLVRRADNRPG; KLAK(14)-HLAH(5)-Z13 peptide) [Peptide A2-2]”, the “cytocidal activity (relative ATP amount %)” value in data set [1] (20 hours) and in data set [3] was “hardly observed or significantly weak” each time.

`CC[C@H](C)[C@H](N)C(=O)N[C@@H](Cc1ccccc1)C(=O)N[C@@H](CC(C)C)C(=O)N[C@@H](CC(C)C)C(=O)N[C@@H](Cc1c[nH]c2ccccc12)C(=O)N[C@@H](CCC(N)=O)C(=O)N[C@@H](CCCNC(=N)N)C(=O)N[C@@H](CCCNC(=N)N)C(=O)N[C@@H](CCCNC(=N)N)C(=O)N[C@H](CCCCN)C(=O)N[C@H](CC(C)C)C(=O)N[C@H](C)C(=O)N[C@H](CCCCN)C(=O)N[C@H](CC(C)C)C(=O)N[C@H](C)C(=O)N[C@H](CCCCN)C(=O)N[C@H](CCCCN)C(=O)N[C@H](CC(C)C)C(=O)N[C@H](C)C(=O)N[C@H](CCCCN)C(=O)N[C@H](CC(C)C)C(=O)N[C@H](C)C(=O)N[C@H](CCCCN)C(=O)N[C@H](Cc1c[nH]cn1)C(=O)N[C@H](CC(C)C)C(=O)N[C@H](C)C(=O)N[C@H](Cc1c[nH]cn1)C(=O)N[C@H](CC(C)C)C(=O)O` [IF7 (RR)−(K+H) peptide, IFLLWQR-RR-KLAKLAK-KLAKLAK-HLAHL] (H-IFLLWQRRR[dK][dL][dA][dK][dL][dA][dK][dK][dL][dA][dK][dL][dA][dK][dH][dL][dA][dH][dL]-OH): in data set [2], the “weight of each mouse” value is on record as “no particular change”.
